Laboratory results taken from ChEMBL document CHEMBL3727348, “3-(aryl or heteroaryl) methyleneindolin-2-one derivatives as inhibitors of cancer stem cell pathway kinases for the treatment of cancer” (2014).

Assays:
[1] = molecular target: T1, Ribosomal protein S6 kinase (Homo sapiens) (UniProt P51812+Q9UBS0+O75676+Q15349+O75582+P23443+Q9UK32+Q15418); assay: Inhibition of RPS6 kinase in human HeLa cells assessed as p-RPS6 Ser240/244 phosphorylation level at 5 uM incubated for 6 hrs by SDS-PAGE based chemiluminescence assay; type: cell-based; set-up: scale not given: the % may be the effect or the level left
[2] = system: A549; assay: Cytotoxic activity against human A549 bulk cells incubated for 72 hrs by Cell-titer-Glo luminescence assay; type: functional, cell-based; details: A549, 72 h
[3] = system: FaDu; assay: Cytotoxic activity against human FADU bulk cells incubated for 72 hrs by Cell-titer-Glo luminescence assay; type: functional, cell-based
[4] = system: ACHN; assay: Cytotoxic activity against human ACHN bulk cells incubated for 72 hrs by Cell-titer-Glo luminescence assay; type: functional, cell-based
[5] = system: FaDu; assay: Cytotoxic activity against human FADU cancer stem cells incubated for 72 hrs by Cell-titer-Glo luminescence assay; type: functional, cell-based
[6] = system: A549; assay: Cytotoxic activity against human A549 cancer stem cells incubated for 72 hrs by Cell-titer-Glo luminescence assay; type: functional, cell-based; details: A549, 72 h
[7] = molecular target: AMP-activated protein kinase, AMPK (Homo sapiens) (UniProt P54646+O43741+P54619+Q9UGJ0+Q9Y478+Q13131+Q9UGI9); assay: Inhibition of AMPK in human HeLa cells assessed as kinase phosphorylation level at 5 uM incubated for 6 hrs by SDS-PAGE based chemiluminescence assay; type: cell-based; set-up: scale not given: the % may be the effect or the level left
[8] = molecular target: T1, Ribosomal protein S6 kinase (Homo sapiens); assay: Inhibition of RPS6 kinase in human HeLa cells assessed as p-RPS6 Ser235/236 phosphorylation level at 5 uM incubated for 6 hrs by SDS-PAGE based chemiluminescence assay; type: cell-based; set-up: scale not given: the % may be the effect or the level left
[9] = system: ACHN; assay: Cytotoxic activity against human ACHN cancer stem cells incubated for 72 hrs by Cell-titer-Glo luminescence assay; type: functional, cell-based

SMILES	Activity [1]	IC50 [2]	IC50 [3]	IC50 [4]	IC50 [5]	IC50 [6]	Activity [7]	Activity [8]	IC50 [9]
Cc1[nH]c(/C=C2\C(=O)Nc3ccc(-c4csc(-c5ccccc5)n4)nc32)c(C)c1C(=O)NCCN1CCCC1	51%	1.43 µM	1.73 µM	1.52 µM	0.17 µM	2.47 µM	41%	13%	0.4 µM
CCN(CC)CCNC(=O)c1c(C)[nH]c(/C=C2\C(=O)Nc3ccc(-c4ccc(-c5ccccc5)cn4)cc32)c1C	82%	2.02 µM	2.72 µM	5.38 µM	4.81 µM	3.79 µM	118%	61%	0.65 µM
CCN(CC)CCNC(=O)c1c(C)[nH]c(/C=C2\C(=O)Nc3cc(-c4oc(-c5ccccc5)nc4C)ccc32)c1C	43%	7.49 µM	3.55 µM	2.97 µM	8.09 µM		151%	4%	1.65 µM
Cc1cc(C)c(/C=C2\C(=O)Nc3cccc(-c4ccc5cc[nH]c5c4)c32)[nH]1	35%	16.6 µM	16.4 µM	20.4 µM		20.2 µM	27%	36%	18.9 µM
Cc1cc(C)c(/C=C2\C(=O)Nc3ccc(-c4csc(C5CCNCC5)n4)cc32)[nH]1	76%	1.29 µM	1.62 µM	1.56 µM	0.43 µM	0.88 µM	47%	76%	0.09 µM
Cc1cc(C)c(/C=C2\C(=O)Nc3ccc(-c4csc(C5CCCNC5)n4)cc32)[nH]1 (stereo not drawn)	34%	1.34 µM	1.58 µM	1.64 µM	0.48 µM	1.7 µM	69%	6%	0.05 µM
Cc1cc(C)c(/C=C2\C(=O)Nc3cccc(-c4ccncc4)c32)[nH]1	47%	13.1 µM	19.6 µM	19.8 µM	12.2 µM	30.3 µM	75%	50%	16.2 µM
Cc1cncc(-c2cccc3c2NC(=O)/C3=C\c2[nH]c(C)cc2C)c1	75%	21.2 µM	26.4 µM	16 µM		32 µM	103%	74%	32 µM
Cc1[nH]c(/C=C2\C(=O)Nc3c2cccc3-c2csc(-c3ccccc3)n2)c(C)c1C(=O)N1CCN(C)CC1	32%	5.41 µM	5.41 µM	15.2 µM	2.99 µM	4.19 µM	122%	2%	0.5 µM
CCN(CC)CCNC(=O)c1c(C)[nH]c(/C=C2\C(=O)Nc3ccc(-c4n[nH]c5ccccc45)cc32)c1C	26%	3.02 µM	2.85 µM	4.31 µM	10.2 µM	5.65 µM	22%	4%	1.31 µM
CCN(CC)CCNC(=O)c1c(C)[nH]c(/C=C2\C(=O)Nc3c2cccc3-c2csc(-c3ccccc3)n2)c1C	32%	1.96 µM	3.75 µM	3.2 µM	1.26 µM	1.57 µM	144%	2%	0.28 µM
Cc1[nH]c(/C=C2\C(=O)Nc3cc(-c4csc(-c5ccccc5)n4)ccc32)c(C)c1C(=O)N1CCN(C)CC1	73%	26.3 µM	4.74 µM	11.6 µM	1.03 µM	1.22 µM	150%	33%	0.39 µM
COC(=O)c1c(C)[nH]c(/C=C2\C(=O)Nc3ccc(-c4csc(C5CCNCC5)n4)cc32)c1C	83%	0.7 µM	0.69 µM	0.52 µM	0.22 µM	2.48 µM	79%	70%	
CCN(CC)CCNC(=O)c1c(C)[nH]c(/C=C2\C(=O)Nc3ccc(-c4nc(-c5ccccc5)cs4)cc32)c1C	64%	4.74 µM	1.18 µM	1.64 µM	0.27 µM	4.28 µM	12%	21%	
CCN(CC)CCNC(=O)c1c(C)[nH]c(/C=C2\C(=O)Nc3ccc(-c4ccc(-c5ccccc5)o4)cc32)c1C	64%	4.3 µM	3.09 µM	3.66 µM	1.41 µM	8.25 µM	144%	19%	0.25 µM
CCN(CC)CCNC(=O)c1c(C)[nH]c(/C=C2\C(=O)Nc3ccc(-c4cccnc4)cc32)c1C	31%	0.84 µM	2.82 µM	1.31 µM	4.31 µM	3.9 µM	8%	1%	1.06 µM
CCN(CC)CCNC(=O)c1c(C)[nH]c(/C=C2\C(=O)Nc3c2cccc3-c2cccnc2OC)c1C	54%	5.32 µM	3.81 µM	3.64 µM	1.92 µM	6.87 µM	31%	48%	2.71 µM
COc1ncc(-c2cccc3c2NC(=O)/C3=C\c2[nH]c(C)cc2C)cn1	54%	17.7 µM	20.8 µM	21.9 µM		34.7 µM	96%	57%	17.5 µM
CCN(CC)CCNC(=O)c1c(C)[nH]c(/C=C2\C(=O)Nc3c2cccc3-c2cncc(C)c2)c1C	59%	3.36 µM	6.23 µM	1.68 µM	2.2 µM	2.23 µM	50%	47%	1.97 µM
CCN(CC)CCNC(=O)c1c(C)[nH]c(/C=C2\C(=O)Nc3c2cccc3-c2ccncc2)c1C	65%	6.85 µM	6.74 µM	6.39 µM	4.41 µM	12.6 µM	56%	60%	4.99 µM
Cc1nc(-c2ccccc2)oc1-c1ccc2c(c1)NC(=O)/C2=C\c1[nH]c(C)c(C(=O)N2CCN(C)CC2)c1C	21%				1.6 µM		103%	2%	0.5 µM
CCN(CC)CCNC(=O)c1c(C)[nH]c(/C=C2\C(=O)Nc3ccc(-c4csc(-c5ccc(O)cc5)n4)cc32)c1C	88%	3.06 µM	0.7 µM	1.38 µM	1.85 µM	6.99 µM	47%	79%	0.5 µM
